Patent US20220133753A1, “COMPOSITIONS AND METHODS USEFUL FOR TREATING DISEASES CHARACTERIZED BY INSUFFICIENT PANTOTHENATE KINASE ACTIVITY” (Comet Therapeutics, Inc., priority 2016, published 2022)
Entries after “also recorded” stand apart in the source; their conditions may differ.

Assays:
[1] = system: HEK293 cells; assay: HoPan treatment of mammalian HEK293 cells in combination with CoA or 4′-phosphopantetheine; assay type: cell-based, human; settings: HoPan treated HEK293 cells, compound added to the medium
Protocol: HoPan treatment of mammalian HEK293 Cells in combination with CoA and 4′-phosphopantetheine treatment: HEK293 cells were maintained in dMEM (Invitrogen) supplemented with 10% fetal calf serum (Gibco) and antibiotics (penicillin/streptomycin, Invitrogen). For HoPan treatment, cells were cultured in custom made dMEM without vitamin B5 (Thermo Scientific) supplemented with dialyzed FCS (Thermo Scientific). CoA or PPanSH was added to HEK293 cells for the final concentration of 25 uM, either in the presence or absence of HoPan (0.5 mM) for 4 days, followed by analysis for phenotype and rescue efficiency of CoA and PPanSH.
(§1) Western blot analysis and Antibodies: For Western blot analysis, cells were collected and washed with phosphate buffer saline (PBS), followed by centrifugation. The cells were lysed and sonicated in 1X Laemmli Sample Buffer and boiled for 5 min with 5% β-mercaptoethanol (Sigma). Protein content was determined using DC protein assay (BioRad). Equal amounts of protein were loaded on a 10 or 12.5% SDS-PAGE gel, transferred onto PVDF membranes and blocked with 5% milk in PBS/0.1% Tween, followed by overnight incubation with primary antibodies. The primary antibodies used were: rabbit-anti dPANK/fbl, 1:4000 Eurogentec custom made as described previously5, mouse anti-tubulin (Sigma Aldrich Cat no: T5168, 1:5000), anti-acetyl-Histone3 (Active Motif Cat no: 39139, 1:2000), anti GAPDH (Fitzgerald Cat no: 10R-G109a, 1:10000), rabbit anti COASY (Abcam Cat no: AB129012, 1:1000). Appropriate HRP-conjugated secondary antibodies (Amersham) were used and detection was performed using enhanced chemi-luminescence (Pierce cat nog: 32106) and Amersham hyperfilm (GE Healthcare). Band intensities were quantified with Image-studio software.

[2] = Mice CoA intravenous injection study; assay type: in vivo, mouse; settings: i.v.
Protocol: Sample preparation for mass spectrometry and instrumental parameters: Samples were briefly washed with ice-cold PBS solution. Samples were then sonicated thoroughly in 100 μl ice-cold milliQ (MQ) water containing 50 mM Tris(2-carboxyethyl)phosphine hydrochloride. Subsequently 100 ul saturated ammonium sulfate was added to each sample and centrifuged for 20 min at 10° C., 16100 rcf to collect supernatant. To 150 μl of supernatant, 15 ul of ammonium hydroxide (12.5%) was added and 20 μl was injected for LC-MS (liquid chromatography-mass spectrometry) analysis. For mouse plasma analysis, 50 ul of MQ water containing 50 mM Tris (2-carboxyethyl)phosphine hydrochloride was added to 50 ul of plasma and processed further as mentioned above. Appropriate dilution series of standard CoA, PPanSH and PPanSH(D4) was processed similarly before analysis. […] The flow was maintained at 1 ml/min with optimized mobile phase gradient of MQ water (A), 200 mM NH4Ac in 95/5 MQ water/acetonitrile adjusted to pH 4.5 with acetic acid (B), and acetonitrile (C). The separated analytes were detected with positive mode mass spectrometry under unit resolution. […] The absolute concentration was finally calculated using linear regression analysis of respective standard compounds, except CoA(D4) which was estimated indirectly using CoA standards. […]

[3] = system: COASY down-regulated HEK293 cells; assay: Knock-down of COASY by siRNA in HEK293 cells with CoA; assay type: cell-based, human; settings: CoA added to the medium
Protocol: Knock-down of COASY by siRNA in mammalian HEK293 cells: HEK293 were maintained as described above. HEK293 were transfected with 200 nM COASY siRNA (GE Healthcare human COASY 80347 smartpool Cat no: M-006751-00-0010) or non-targeting siRNA (GE Healthcare Cat no: D-001206-13-20) using lipofectamine 2000 (Invitrogen) 4 h after transfection CoA was added in a final concentration of 25 uM. Cells were cultured for 3 days and then harvested for HPLC analysis of total CoA and PPanSH levels and Western blot (histone acetylation) as described below.
as §1, with “The primary antibodies used were: rabbit-anti dPANK/fbl, 1:4000 Eurogentec custom made as described previously5, mouse anti-tubulin (Sigma Aldrich Cat no: T5168, 1:5000), anti-acetyl-Histone3 (Active Motif Cat no: 39139, 1:2000), anti GAPDH (Fitzgerald Cat no: 10R-G109a, 1:10000), rabbit anti COASY (Abcam Cat no: AB129012, 1:1000).” left out

CC(C)(COP(=O)(O)OP(=O)(O)OC[C@H]1O[C@@H](n2cnc3c(N)ncnc32)[C@H](O)[C@@H]1OP(=O)(O)O)[C@@H](O)C(=O)NCCC(=O)NCCS [CoA, Coenzyme A]
rescue of HoPan-induced impaired histone acetylation [1]: rescued
rescue of HoPan-induced reduction in cell count [1]: rescued
intracellular CoA level ([1]; HPLC): restored the intracellular concentration of CoA
conversion of injected CoA in plasma ([2]; 30 minutes, HPLC): rapidly converted to 4′-phosphopantetheine
4′-phosphopantetheine in plasma after CoA injection ([2]; 6 hrs, mass spectrometry): elevated levels of PpanSH; also recorded: still present
rescue of COASY RNAi-induced decrease in intracellular CoA levels [3]: neither rescued
